Results on three compounds are retold here after PMC7472354, “Enhanced Antimicrobial Activity of N-Terminal Derivatives of a Novel Brevinin-1 Peptide from The Skin Secretion of Odorrana schmackeri” (Toxins, 2020).

Each structure is given as a SMILES string. Entries after “also recorded” stand apart in the source; their conditions may differ. Read-outs that look alike come from different tables or passages of the source. Where a SMILES comes first, the peptide text is derived from it.

Data set [1] relates to horse red blood cells. The data set can be described thus: Haemolysis assay and therapeutic index. Conditions: 2% horse red blood cells in PBS, 2 h, 37 °C, absorbance 570 nm; best-fitted curve.
Data set [2] concerns MRSA (ATCC 12493) biofilm. Type of data set: cell-based, Staphylococcus aureus. The settings on record: for MBIC50 / MBIC90: ATCC 12493, 24 h. On the procedure: The anti-biofilm effects of all synthetic peptides were evaluated, which was described in our previous study. The organisms, including S. aureus (NCTC 10788), E. coli (NCTC 10418), MRSA (ATCC 12493), E. faecalis (NCTC 12697) and P. aeruginosa (ATCC 27853), were investigated in this study. Gram-positive bacteria were cultured in the TSB broth and Gram-negative bacteria were cultured in the LB broth. The anti-biofilm effects were determined based on the MBIC and MBEC of all the peptides. For the determination of MBIC, 5 × 10^5 CFU/mL bacterial cultures were incubated with the peptides concentrations (ranging from 1 µM to 512 µM) for 24 h. The sterilised medium and bacterial suspension without any treatment were used as the negative controls and positive controls, respectively. After incubation, wells were rinsed, fixed, stained, washed and dissolved with phosphate buffer saline (PBS), methanol (90%, v/v), crystal violet (0.1%, w/v), sterile deionised water and acetic acid (30%, v/v), respectively. The absorbance of dissolved stain was measured at a 595 nm using a Synergy HT plate reader (Biotech, Minneapolis, MN, USA).
For the MBEC assay, the peptide concentrations were prepared as above. The bacteria were cultured in the 96 well plate for 24–48 h, which allowed the formation of mature biofilm in the plate. Then, the bacterial culture was removed from the plate. The biofilm was further washed to remove the planktonic bacteria using PBS. Then, the fresh broth that contained different peptide concentrations was added in the plate for incubation of 24 h at 37 °C. After incubation, the plate was stained by crystal violet as mentioned above. The definition of MBIC can be given when compared to the negative control group (≥90%, MBIC90; ≥50%, MBIC50). The definition of the MBEC can be given when compared to the negative control group (≥90%, MBEC90; ≥50%, MBEC50).

Data set [3] in a line: Circular dichroism, alpha-helical content (K2D3). Type of data set: physicochemical. The settings on record: CD, 50 µM peptide in 50% TFE in 10 mM NH4AC; helical content calculated with K2D3. Here is the method:
To further identify the secondary structure of purified peptides, they were dissolved in 10 mM ammonium acetate (NH4AC) and 50% trifluoroethanol (TFE) in 10 mM NH4AC, respectively, to achieve the concentration of 50 µM. […] The circular dichroism (CD) data of the peptides in TFE solution was submitted to the K2D3 webserver to analyse the α-helical content. Moreover, helical wheel projections of brevinin-1OS and its analogues were conducted (Figure A7) and the physicochemical properties of all peptides are summarized in Table 1.
Circular dichroism (CD) was employed to determine the secondary structure of the synthetic peptides in the different environment. The peptides were prepared in the aqueous solution, 10 mM NH4AC solution (pH 7.4), or the membrane mimicking solution, 50% TFE in 10 mM NH4AC, at a concentration of 50 µM. The proportion of helical content of each peptide in the 50% TFE in 10 mM NH4AC was calculated using the online server, K2D3 (http://cbdm-01.zdv.uni-mainz.de/~andrade/k2d3/). Physiochemical properties of the helical forming peptides were calculated online by Heliquest (http://heliquest.ipmc.cnrs.fr). Additionally, the secondary structures of peptides were predicted online by I-TASSER Predictions (https://zhanglab.ccmb.med.umich.edu/I-TASSER/).

The subject of data set [4] is MRSA. As to the kind of experiment: Time-killing assay. In kind it is cell-based, Staphylococcus aureus. Conditions: peptide at 4 × MIC; colony counts on MHA; three independent experiments. On the procedure:
The time-killing assays were employed to determine the killing kinetics of the peptides on the selected bacteria strains. The experiment was performed as described previously. In brief, the bacteria culture was prepared the same way as the antimicrobial activity assay. A bacteria suspension (OD600 = 0.1) was mixed with the peptides at the concentration of their corresponding MICs and 4 × MICs. At different time intervals, 10 µL of aliquots of each sample was transferred into a clean tube and a series of 10-fold dilution was prepared in PBS. A volume of 100 µL of diluted bacteria suspension was spread on an MHA plate, and the number of the bacterial colonies that were formed after an overnight-incubation at 37 °C. The bacteria cultured without any treatment was employed as the negative (growth) control. Three experiments were run in triplicate.

Data set [5] deals with MRSA. The data set can be described thus: Skin disinfection test, pig skin model. Further details: species or system Staphylococcus aureus. Conditions: 10 µL peptide at 1 × MIC on MRSA-inoculated pig skin wound, 37 °C, 4 days; SEM. Here is the method: Specifically, pig skin was sterilized before using. The pig skins were cut into small pieces, and then, a rectangular groove was cut using a skin graft. 100 µL of logarithmic MRSA solution was inoculated on the wound, followed by incubating at 37 °C for 30 min. […] The pictures of wounds were captured by the digital camera after washing thrice with PBS, fixed with 2.5% (w/v) glutaraldehyde and dehydrated with a graded ethanol series. Finally, the MRSA cells which had attached to the wounded pig skin were visualized by SEM (Hitachi S-4800, Tokyo, Japan).

The test system of data set [6] is MRSA. The data set can be described thus: Treatment of MRSA-infected Galleria mellonella larvae. Conditions: 10 µL of 10^8 CFU/mL MRSA injected; peptide 25 or 50 mg/kg injected after 2 h; 30 larvae per group. Type of data set: in vivo. On the procedure: The in vivo study of antimicrobial activity of the peptides was evaluated using the larvae of Galleria mellonella, which was described in the previous study with minor modifications. The larvae of Galleria mellonella (250 ± 25 mg; Livefood UK Ltd., Rooks Bridge, UK) were selected. The MRSA culture was prepared the same way as the antimicrobial activity assay. Then, MRSA cells were collected and washed, and further diluted to 10^8 CFU/mL in the saline. Ten µL of MRSA suspension was injected to the larvae and placed in a petri dish. After 2 h, the MRSA infected larvae were administrated with 10 µL of peptides (25 mg/kg, 50 mg/kg) by injection. Saline and vancomycin (20 mg/kg) (Sigma-Aldrich, UK) were used as the negative control and positive control, respectively. Each sample group contained 10 larvae, and the experiment was repeated three times (30 larvae for each group in total). The survival curves were achieved using Prism (Version 6.0; GraphPad Software Inc., San Diego, CA, USA) and the log-rank test was employed to analyze the significance between the different treatments and the controls. * (p < 0.05), ** (p < 0.01) and *** (p < 0.001) represent statistical significance.

The subject of data set [7] is horse red blood cells. Conditions: 2 h.
Procedure: The haemolytic activity of synthetic peptides was determined using the horse red blood cells that were extracted from the de-fibroblast whole horse blood (TCS Biosciences Ltd. Buckingham, UK). […] Briefly, the red blood cells were harvested and washed using PBS until all broken red blood cells were removed. Then, a 2% cell suspension was prepared using PBS. The peptide concentrations were set as antimicrobial activity assay and mixed with the red blood cells in the microcentrifuge tubes. After a 2 h-incubation at 37 °C, the tubes were centrifuged and the suspension was transferred into a clear 96 well plate. The absorbance of released haemoglobin in the suspension was detected at 570 nm by a plate reader. Besides, the red blood cells treated with PBS and 1% Triton X-100 were used as the negative and positive controls, respectively. […] The therapeutic index (TI) was further determined as below:(1) TI=HC50/product of n MICsn,

Regarding `CC(C)C[C@H](NC(=O)[C@H](C)NC(=O)[C@H](Cc1c[nH]c2ccccc12)NC(=O)[C@H](CCCCN)NC(=O)[C@H](CC(C)C)NC(=O)[C@@H](N)Cc1ccccc1)C(=O)N[C@@H](CCCCN)C(=O)N[C@@H](Cc1c[nH]c2ccccc12)C(=O)N[C@@H](C)C(=O)N[C@@H](C)C(=O)N[C@@H](CCCCN)C(N)=O` [OSe] (H-FLKWALKWAAK-NH2), the “HC50 (concentration causing 50% haemolysis of the red blood cells)” value in data set [1] is listed as 64.03 µM. In data set [2], the MBEC50 is recorded as 32 µM, the MBEC90 is recorded as 32 µM, the MBIC50 was 8 µM and the MBIC90 came to 16 µM.

As for `CC(C)C[C@H](NC(=O)[C@H](C)NC(=O)[C@H](Cc1c[nH]c2ccccc12)NC(=O)[C@H](CCCCN)NC(=O)[C@@H]1CCCN1C(=O)[C@H](CC(C)C)NC(=O)[C@@H](N)Cc1ccccc1)C(=O)N[C@@H](CCCCN)C(=O)N[C@@H](Cc1c[nH]c2ccccc12)C(=O)N[C@@H](C)C(=O)N[C@@H](C)C(=O)N[C@@H](CCCCN)C(N)=O` [OSf] (H-FLPKWALKWAAK-NH2; N-terminus assumed), the “HC50 (concentration causing 50% haemolysis of the red blood cells)” value in data set [1] is 328.3 µM. Moreover, in data set [3], the α-Helicity was 34.8%. Also, the “time to complete killing of MRSA” value in data set [4] is ≤ 45 min. Further, the “MRSA on infected pig skin wound after treatment” value in data set [5] was “almost eradicated”. Moreover, in data set [2], the MBEC50 came out at 32 µM, the MBEC90 was 128 µM, the MBIC50 is reported as 16 µM and the MBIC90 came to 64 µM. Further, the “mortality of MRSA-infected larvae” value in data set [6] is reported as “dramatically decreased the mortality; also recorded: reduced the mortality”.

In the case of `CC(C)C[C@H](NC(=O)[C@H](C)NC(=O)[C@H](Cc1c[nH]c2ccccc12)NC(=O)[C@H](CCCCN)NC(=O)[C@H](CC(C)C)NC(=O)[C@@H](N)Cc1ccccc1)C(=O)N[C@@H](CCCCN)C(=O)N[C@H](C(=O)N[C@@H](C)C(=O)N[C@@H](C)C(=O)N[C@@H](CCCCN)C(N)=O)C(C)C` [OSd] (H-FLKWALKVAAK-NH2), in data set [2], the MBEC50 is 32/32 µM, the MBEC90 was 256 µM, the MBIC50 is reported as 32/32 µM and the MBIC90 is 64 µM. The “HC50 (concentration causing 50% haemolysis of the red blood cells)” value in data set [7] was >512 µM.
